According to US11278524B2, “Formulations and methods for the treatment of cancers” (Stemirna (Shanghai) Biotechnology Co. LTED., priority 2018, dated 2022):

Assays:
[1] = tested on: LAPC9 androgen-independent tumors; assay: Therapy of LAPC9 androgen-independent tumors; format: in vivo, mice
Procedure: (§1) The xenograft models—LAPC9, LAPC4, LNCaP, and VCaP were serially passaged in castrated male NOD/SCID-γ mice (NSG; for LNCaP or NOD/SCID for the other models). The tumors were then harvested for western blot analysis for androgen receptor, androgen receptor-target molecules, cancer stem cell (CSC) and castration resistance (CR) markers. PC3 cells were used as a negative control for androgen receptors. 60 μg of whole cell lysate was loaded in each lane. GADPH was run as the loading controls (top and bottom panels).
To determine the sensitivity of LAPC9 androgen-independent tumors to enzalutamide, therapy experiments were performed as described for the LNCaP primary AI tumors (FIG. 3). […] To determine whether blocking alternate pathways regulated by any of these high expressing proteins, in the Enzalutamide resistant LAPC9 androgen-independent tumors, affects tumor burden, therapy experiments were performed with the Bromodomain and Extra-Terminal protein (a upstream regulator of Myc transcription) inhibitor, JQ1. The integrin α2β1 inhibitor, Compound 15 (142,143) was used as a positive control.

[2] = tested on: LAPC4 androgen-independent tumors; assay: Therapy of castrated mice bearing LAPC4 androgen-independent tumors; format: in vivo
Procedure: as §1
To determine whether targeting cyt-AR in these tumors would be effective in reducing tumor burden, castrated mice bearing LAPC4 androgen-independent tumors were administered enzalutamide as indicated (FIG. 5B), and the tumor volume measured.
However, starting from ˜6.5-7 weeks, tumors resumed growth, indicative of resistance to enzalutamide. […] This opens the possibility of employing combinatorial approaches that target androgen receptor (Enzalutamide) together molecules such as Bcl2 (Venetoclax).

[3] = tested on: LNCaP AI-tumors; assay: Therapy of mice bearing LNCaP androgen-independent (AI) tumors; format: in vivo
[4] = enzalutamide-resistant LAPC4 tumors, western blot
[5] = enzalutamide-resistant LAPC9 AI tumors

CNC(=O)c1ccc(N2C(=S)N(c3ccc(C#N)c(C(F)(F)F)c3)C(=O)C2(C)C)cc1F [Enzalutamide, 4-(3-(4-Cyano-3-(trifluoromethyl)phenyl)-5,5-dimethyl-4-oxo-2-thioxoimidazolidin-1-yl)-2-fluoro-N-methylbenzamide]
FKBP5 levels ([1]; both vehicle and treatment groups, western blot): greatly diminished | levels of integrin α2, c-Myc, N-cadherin, Bcl-2 and p-ERK1/2 ([1]; enzalutamide-treated tumors, western blot): continued to express high levels | response of tumors to enzalutamide (tumor volume) ([1]; primary AI tumors, vehicle corn oil): refractory | expression of androgen receptors and PSA ([1]; western blot and IHC of endpoint tumors): no expression | E-cadherin expression [2, 4]: slight increases | levels of GR, N-cadherin, Bcl-2 and integrin α2 [2, 4]: continued to express high levels | androgen receptor localization ([2]; enzalutamide-resistant tumors, immuno-histochemistry): still largely in the cytoplasm | tumor growth compared to vehicle (corn oil) control ([2]; first 2-3 weeks): grew significantly slower | time from which tumors resumed growth (resistance to enzalutamide) ([2]; mouse, in vivo): 6.5-7 weeks | growth of enzalutamide-resistant cyto-AR+ LAPC4 tumors ([2]; up to 13 weeks, compared with enzalutamide-resistant LNCaP tumors): grew relatively slow | Bcl-2 expression in response to enzalutamide ([3]; among CSC and castration resistance markers, western blot): most prominent upregulation | duration of growth suppression ([3]; enzalutamide i.p.): 6.5 weeks | time at which no further response to enzalutamide was observed (emergence of enzalutamide-resistant tumors) ([3]; enzalutamide i.p.): about 7 weeks | growth of androgen-independent LNCaP tumors ([3]; enzalutamide i.p., vehicle corn oil): suppressed growth | FKBP5 expression ([3]; enzalutamide-resistant secondary LNCaP CR tumors, western blot): decreased | PSA expression ([3]; enzalutamide-resistant secondary LNCaP CR tumors, western blot and IHC): decreased

Cc1sc2c(c1C)C(c1ccc(Cl)cc1)=N[C@@H](CC(=O)OC(C)(C)C)c1nnc(C)n1-2 [JQ1, (S)-tert-butyl 2-(4-(4-chlorophenyl)-2,3,9-trimethyl-6H-thieno[3,2-f][1,2,4]triazolo[4,3-a][1,4]diazepin-6-yl)acetate]
tumor growth [1, 5]: significantly inhibited tumor growth | tumor incidence [1, 5]: not tumor incidence

CC#C[C@]1(O)CC[C@H]2[C@@H]3CCC4=CC(=O)CCC4=C3[C@@H](c3ccc(N(C)C)cc3)C[C@@]21C [mifepristone]
emergence (incidence) of LNCaP secondary castration resistant prostate cancer ([3]; combination with enzalutamide given simultaneously, LNCaP primary AI tumors, P<0.0001, χ2 test for venetoclax combination): without reducing incidence | tumor growth ([3]; combination with enzalutamide, LNCaP primary AI tumors): inhibited tumor growth
